Measured values as given in patent US8153803B2, “Compositions and methods for modulating sirtuin activity” (The General Hospital Corporation, priority 2006, dated 2012).

Experiments:
[1] = tested on: α-synuclein aggregates; settings: previously identified (WO 05/087217); cited from earlier work
[2] = tested on: H4 neuroglioma cells transfected with α-synuclein; settings: previously identified (WO 05/087217); cited from earlier work
[3] = biological target: T1, SIRT2 (Homo sapiens, UniProt Q8IXJ6); assay: Fluorescent SIRT enzyme assay (recombinant enzyme, fluorescent peptide substrate); assay type: biochemical
T1 construct: purchased Biomol (Plymouth Meeting, Pa.)
T1 sequence (Q8IXJ6 1-389): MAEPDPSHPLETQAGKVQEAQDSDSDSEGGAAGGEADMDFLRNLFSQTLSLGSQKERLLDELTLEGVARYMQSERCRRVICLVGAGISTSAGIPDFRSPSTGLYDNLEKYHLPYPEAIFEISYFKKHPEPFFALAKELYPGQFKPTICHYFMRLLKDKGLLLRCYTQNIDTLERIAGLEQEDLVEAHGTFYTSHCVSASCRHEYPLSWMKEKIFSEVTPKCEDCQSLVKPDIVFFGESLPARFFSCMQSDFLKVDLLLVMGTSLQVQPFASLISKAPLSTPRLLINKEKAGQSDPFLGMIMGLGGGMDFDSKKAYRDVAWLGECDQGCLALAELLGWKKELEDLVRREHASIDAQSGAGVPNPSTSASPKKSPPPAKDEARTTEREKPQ

[4] = tested on: α-synuclein aggregates; assay: α-Synuclein aggregation phenotype in cells; assay type: cell-based; settings: correlated with functional rescue
[5] = tested on: H4 neuroglioma cells transfected with α-synuclein; assay: α-Synuclein toxicity assay (adenylate kinase release, ToxiLight); assay type: cell-based, human; settings: H4 cells overexpressing α-synuclein
Protocol: Cell culture and transfection: HeLa cells were cultured in DMEM supplemented with 10% fetal bovine serum (FBS) and 2 mM L-glutamine. Human H4 neuroglioma cells (“H4 cells” HTB-148 from the American Type Culture Collection (ATCC), Manassas, Va., USA) were maintained in OPTI-MEM (Life Technologies, Grand Island, N.Y., USA) supplemented with 10% FBS. H4 cells were passaged 24 hours prior to transfection and plated in 24-well plates. The cells were transfected, using a pcDNA3.1hygro vector (Invitrogen) and […] (Qiagen, Chatsworth, Calif., USA) according to the manufacturer's instructions. Compounds or DMSO were added after the transfection procedure was concluded.
α-Synuclein toxicity assay: Toxicity was analyzed 24 hours after transfection by measuring the release of adenyate kinase from damaged cells into the culture medium using the ToxiLight™ kit (Cambrex, Walkersville, Md.) according to the manufaturer's protocol.

[6] = tested on: HeLa cells; assay: Cell-based SIRT2 inhibition (α-tubulin acetylation, Western blot); set-up: species or system human
Protocol: Tubulin and sirtuin Western blot analysis: Samples were separated on 10% polyacrylamide gels and transferred to a 0.45 μm PVDF membrane (Millipore, Bedford Mass.). Membranes were blocked with a 5% milk solution in PBST. Blots were then probed with antibodies to either SIRT2 (Santa Cruz A-5 at 1:100), tubulin (Sigma, St. Louis Mo., B-5-1-2) or acetylated tubulin (Sigma, 6-11B-1), both at 1:5000. Secondary detection was performed using an HRP-conjugated anti-mouse antibody (Sigma) at 1:4000, and exposed using an ECL detection kit (PerkinElmer). […] The following morning, medium was removed and fresh medium containing compound was added to the wells. After 3 hours, medium was removed and cells were washed 3× with PBS. After the final wash, 100 μL of a hypotonic lysis buffer was added to each well, and the cells were lysed at 37° C. for 5 minutes. The lysates were transferred to eppendorf tubes and centrifuged at 16,000×g for 10 minutes at room temperature. The resulting supernatant contained soluble tubulin monomers, while the pellet contained the insoluble microtubule polymers. […] SDS sample buffer was added to all the samples, followed by Western blot analysis.

[7] = biological target: T2, SIRT1 (Homo sapiens, UniProt Q96EB6); assay: Fluorescent SIRT enzyme assay (recombinant enzyme, fluorescent peptide substrate); assay type: biochemical; settings: at compound concentrations of 40 μM or higher
T2 sequence (Q96EB6 1-747): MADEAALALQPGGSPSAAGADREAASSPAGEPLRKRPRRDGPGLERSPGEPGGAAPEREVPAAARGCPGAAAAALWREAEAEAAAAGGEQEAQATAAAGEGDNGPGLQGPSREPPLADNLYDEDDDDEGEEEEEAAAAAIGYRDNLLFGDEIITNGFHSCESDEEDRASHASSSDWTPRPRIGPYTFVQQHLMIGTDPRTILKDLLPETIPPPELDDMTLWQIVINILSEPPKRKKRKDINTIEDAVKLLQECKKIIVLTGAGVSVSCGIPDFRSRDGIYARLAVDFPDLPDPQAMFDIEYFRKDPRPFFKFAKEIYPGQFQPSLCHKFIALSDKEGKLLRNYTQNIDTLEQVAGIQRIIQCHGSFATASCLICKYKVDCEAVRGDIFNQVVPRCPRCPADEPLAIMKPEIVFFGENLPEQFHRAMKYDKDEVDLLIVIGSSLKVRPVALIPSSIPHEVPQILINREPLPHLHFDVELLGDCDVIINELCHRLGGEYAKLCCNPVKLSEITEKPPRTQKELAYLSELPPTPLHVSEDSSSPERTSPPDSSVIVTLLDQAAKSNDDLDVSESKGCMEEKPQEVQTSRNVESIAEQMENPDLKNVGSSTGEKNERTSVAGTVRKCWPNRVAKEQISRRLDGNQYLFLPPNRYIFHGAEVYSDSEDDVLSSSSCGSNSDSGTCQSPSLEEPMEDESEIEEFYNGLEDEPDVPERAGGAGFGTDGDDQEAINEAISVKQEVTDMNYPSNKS

| IC50 ([3]; recombinant SIRT2, fluorescent peptide substrate, read-out: IC50 against SIRT2) [µM] | selectivity for SIRT2 ([3]; versus other sirtuins tested (SIRT1, SIRT3)) | inhibition of SIRT1 [7] | Structure (SMILES) | α-synuclein aggregates / inclusions [1] | inhibition of α-synuclein-mediated cellular toxicity [2] | α-synuclein aggregates / inclusion size [4] | rescue of α-synuclein toxicity [5] | acetylation of α-tubulin in compound-treated cells [6] |
| --- | --- | --- | --- | --- | --- | --- | --- | --- |
| 35 | selective inhibition of SIRT2 | – | O=[N+]([O-])c1ccc(Sc2nnc(COc3ccccc3)n2-c2ccccc2)c2cccnc12 [B2] | decrease in the number of small α-synuclein aggregates and the formation of large inclusions | inhibits α-synuclein-mediated cellular toxicity | – | – | – |
| – | – | slightly inhibits | N#C/C(=C\c1ccc(-c2cc(Cl)ccc2Cl)o1)C(=O)Nc1cccc2ncccc12 [AGK2] | – | – | formation of large inclusions, while reducing number of small aggregates | can rescue α-synuclein toxicity | increasing the acetylation of α-tubulin |
| – | – | – | O=C(Nc1cccc([N+](=O)[O-])c1)c1cccc(S(=O)(=O)N2CCCCCC2)c1 [AK-1, 3-(azepane-1-sulfonyl)-N-(3-nitro-phenyl)-benzamide] | – | – | increased inclusion size | prevented some α-synuclein toxicity | – |
